Measurements published in patent US11560380B2, “Substituted naphthalene diimides and their use” (UCL Business Ltd, priority 2019, dated 2023).
Like-named read-outs stand apart in the source and are kept apart here. One block for each compound: values may come before it.

Experiments:
[1] = system: PC-3; assay: 72 hr XTT cell viability assay, PC-3; assay type: cell-based; details: Homo sapiens; PC-3, 72 hr XTT; read-out: IC50 cell growth inhibition
From the text: (§1) The CyQUANT XTT Cell Viability Assay (Invitrogen) is a complete, optimized assay that generates a consistent colorimetric detection of viable mammalian cells. The assay kit consists of two reagents, XTT Reagent (2,3-bis-(2-methoxy-4-nitro-5-sulfophenyl)-2H-tetrazolium-5-carboxanilide) and Electron Coupling Reagent. XTT Reagent is used to assess cell viability as a function of cellular redox potential, and the electron coupling reagent improves the dynamic range of the assay. The kit was used as per the manufacturers' instructions.

[2] = system: LNCaP; assay: 72 hr XTT cell viability assay, LNCaP; assay type: cell-based; details: Homo sapiens, read-out: IC50 cell growth inhibition
From the text: as §1

[3] = system: MIA-PACA2 cells; assay: MTS cell proliferation assay (CellTiter 96 AQueous One Solution), 96 hr; assay type: cell-based; details: Homo sapiens, MIA PaCa-2, 96 hr MTS assay
From the text: The CellTiter 96® AQueous One Solution Cell Proliferation Assay ([…]) is a colorimetric method for determining the number of viable cells in proliferation or cytotoxicity assays. The CellTiter 96® AQueous One Solution Reagent contains a novel tetrazolium compound [3-(4,5-dimethylthiazol-2-yl)-5-(3-carboxymethoxyphenyl)-2-(4-sulfophenyl)-2H-tetrazolium, inner salt; MTS] and an electron coupling reagent (phenazine ethosulfate; PES). PES has enhanced chemical stability, which allows it to be combined with MTS to form a stable solution. The MTS tetrazolium compound (Owen's reagent) is bioreduced by cells into a colored formazan product that is soluble in tissue culture medium. Assays are performed by adding a small amount of the CellTiter 96@ AQueous One Solution Reagent directly to culture wells, incubating for 1-4 hours and then recording the absorbance at 490 nm with a 96-well plate reader. The quantity of formazan product as measured by absorbance at 490 nm is directly proportional to the number of living cells in culture. The kit was used as per the manufacturers' instructions. After 96-hour incubation with each example compound in MIA-PACA2 cells, the cell proliferation of each sample was measured using the MTS Cell Titre 96 Aqueous One Solution Cell Proliferation Assay (Promega Ltd). The percentage of inhibition was calculated against the mean of the DMSO treated controls samples.

[4] = Stability in saline at 0° C.; assay type: physicochemical
[5] = Mouse microsomal stability; assay type: in vitro ADME; details: mouse microsomes; read-out: t1/2 mouse microsomal stability
[6] = Plasma protein binding in vitro; assay type: in vitro ADME
[7] = In vitro blood/plasma partitioning; assay type: in vitro ADME; details: blood and plasma
[8] = system: GQ; assay: FRET melting with GQ; assay type: binding
[9] = system: MIA-PACA2; assay: 96 hr SRB cell growth inhibition, MIA-PACA2; assay type: cell-based; details: for IC50: Homo sapiens, MIA PaCa-2, MIA-PACA2, 96 hr SRB
[10] = system: PANC-1; assay: 96 hr SRB cell growth inhibition, PANC-1; assay type: cell-based; details: Homo sapiens; PANC-1, 96 hr SRB
[11] = system: CAPAN-1; assay: 96 hr SRB cell growth inhibition, CAPAN-1; assay type: cell-based; details: Homo sapiens; CAPAN-1, 96 hr SRB
[12] = system: BX-PC3; assay: 96 hr SRB cell growth inhibition, BX-PC3; assay type: cell-based; details: Homo sapiens, BXPC-3; BX-PC3, 96 hr SRB
[13] = system: MIA-PACA2^gemR; assay: 96 hr SRB cell growth inhibition, MIA-PACA2 gemR; assay type: cell-based; details: Homo sapiens, MIA PaCa-2
[14] = system: MIA-PACA2 tumours; assay: In vivo xenograft efficacy study, MIA-PACA2 model; details: for complete regression in tumour volume at the end of the dosing period: 1 mg/kg IV, 28 days; for tumours not showing complete regression, versus vehicle control: minority of tumours in the group
Procedure: Mice aged 5-7 weeks weighing approximately 25-32 g were implanted for the study and purchased from Charles River. The pancreatic tumour cell implantation procedure involved MIA-PACA2 cells (1×10^7 in Matrigel) being implanted subcutaneously using a 22-gauge needle onto the rear flank of the mice. Parameters evaluated include: tumour size and animal bodyweight. Tumour volume was measured three times weekly and bodyweight at least 3 times weekly. Allocation to treatment groups was done randomly when tumours reached approximately 50 mm^3 for animals in the efficacy study. […] Each group comprised 8 animals. All protocols used in this study were approved by the appropriate Animal Welfare and Ethical Review Board, and all procedures were carried out under the guidelines of the UK Animal (Scientific Procedures) Act 1986.
The data shown is mean±SD n=8 up to day 23 and n=4 to the end of the study. […] The starting tumour volumes were […]. Example 1 was active in both of the dosage regimens examined, 1× weekly and 2× weekly, both at a 1 mg/kg dose. Both had ⅝ complete regression in tumour volume at the end of the dosing period.

[15] = system: DU145; assay: 72 hr XTT cell viability assay, DU145; assay type: cell-based; details: Homo sapiens, DU-145; DU145, 72 hr XTT; read-out: IC50 cell growth inhibition
From the text: as §1

[16] = system: VCaP; assay: 72 hr XTT cell viability assay, VCaP; assay type: cell-based; details: Homo sapiens, read-out: IC50 cell growth inhibition
From the text: as §1

[17] = system: 22RV1; assay: 72 hr XTT cell viability assay, 22RV1; assay type: cell-based; details: Homo sapiens; 22RV1, 72 hr XTT; read-out: IC50 cell growth inhibition
From the text: as §1

[18] = Aqueous solubility of salt; assay type: physicochemical; details: water; HCl/formate salt

Compound: C[C@]12CC[C@H](O)CC1=CC[C@@H]1[C@@H]2CC[C@]2(C)C(c3cccnc3)=CC[C@@H]12 [Abiraterone]
- IC50 [1]: 4820 nM
- IC50 [2]: 3860 nM

Compound: O=C1c2cc(-c3ccc(CN4CCCC4)cc3)c3c4c(cc(NCCN5CCCC5)c(c24)C(=O)N1CCCN1CCOCC1)C(=O)N(CCCN1CCOCC1)C3=O [Example 1, 2,7-bis(3-morpholinopropyl)-4-((2-(pyrrolidin-1-yl)ethyl)amino)-9-(4-(pyrrolidin-1-ylmethyl)phenyl)benzo[lmn][3,8]phenanthroline-1,3,6,8(2H,7H)-tetraone]
- IC50 ([3]; read-out: ABS IC50): 0.056 nM
- IC50 ([3]; read-out: Rel IC50): 0.035 nM
- Stability in saline at 0° C. [4]: >1 month
- half-life [5]: 268 min
- fraction unbound [6]: 0.339
- blood plasma ratio [7]: 6.1
- FRET ΔTm, ° C. with GQ [8]: 23.1 °C
- IC50 [9]: 1.3 nM
- greater cellular potency relative to C1 ([9]; compared with C1): 10 fold
- IC50 [10]: 1.4 nM
- IC50 [11]: 5.9 nM
- IC50 [12]: 2.6 nM
- IC50 [13]: 3.8 nM
- complete regression in tumour volume at the end of the dosing period ([14]; 1× weekly): ⅝
- complete regression in tumour volume at the end of the dosing period ([14]; 2× weekly): ⅝
- tumour regrowth in complete regression cohorts ([14]; 28 days post-dosing): no regrowth seen after 28 days post-dosing
- tumour growth and tumour size ([14]; MIA-PACA2 xenograft, 28 days IV administration, followed by 28 days measurement): inhibited the growth of the pancreatic tumour and reduced the tumour's size considerably more than the comparative compound C1 or the known anti-cancer drug, Gemcitabine
- tolerability ([14]; compound and dosing schedules, IV, mice): well-tolerated showing no sign of adverse effects
- tumours not showing complete regression, versus vehicle control [14]: reductions in tumour growth, leading to consistently smaller volumes than in the vehicle control groups
- IC50 [1]: 3 nM
- IC50 [15]: 32 nM
- IC50 [2]: 247 nM
- IC50 [16]: 68 nM
- IC50 [17]: 90 nM

Compound: O=C1c2cc(-c3ccc(CN4CCOCC4)cc3)c3c4c(cc(NCCN5CCCC5)c(c24)C(=O)N1CCCN1CCOCC1)C(=O)N(CCCN1CCOCC1)C3=O [Example 2, 4-(4-(morpholinomethyl)phenyl)-2,7-bis(3-morpholinopropyl)-9-((2-(pyrrolidin-1-yl)ethyl)amino)benzo[lmn][3,8]phenanthroline-1,3,6,8(2H,7H)-tetraone]
- IC50 ([3]; read-out: ABS IC50): 0.292 nM
- IC50 ([3]; read-out: Rel IC50): 0.188 nM

Compound: O=C1c2cc(-c3cccc(CN4CCCC4)c3)c3c4c(cc(NCCN5CCCC5)c(c24)C(=O)N1CCCN1CCOCC1)C(=O)N(CCCN1CCOCC1)C3=O [Example 3, 2,7-bis(3-morpholinopropyl)-4-((2-(pyrrolidin-1-yl)ethyl)amino)-9-(3-(pyrrolidin-1-ylmethyl)phenyl)benzo[lmn][3,8]phenanthroline-1,3,6,8(2H,7H)-tetraone]
- IC50 ([3]; read-out: ABS IC50): 0.284 nM
- IC50 ([3]; read-out: Rel IC50): 0.282 nM

Compound: O=C1c2cc(-c3ccc(CN4CCCCC4)cc3)c3c4c(cc(NCCN5CCCC5)c(c24)C(=O)N1CCCN1CCOCC1)C(=O)N(CCCN1CCOCC1)C3=O [Example 4, 2,7-bis(3-morpholinopropyl)-4-(4-(piperidin-1-ylmethyl)phenyl)-9-((2-(pyrrolidin-1-yl)ethyl)amino)benzo[lmn][3,8]phenanthroline-1,3,6,8(2H,7H)-tetraone]
- IC50 ([3]; read-out: ABS IC50): 0.175 nM
- IC50 ([3]; read-out: Rel IC50): 0.132 nM

Compound: O=C1c2ccc3c4c(c(NCCN5CCCC5)cc(c24)C(=O)N1CCCN1CCOCC1)C(=O)N(CCCN1CCOCC1)C3=O [Example C1, reference compound]
- solubility [18]: > 5000 µg/mL
- Stability in saline at 0° C. [4]: >1 month
- half-life [5]: > 480 min
- fraction unbound [6]: 0.65
- blood plasma ratio [7]: 10.9
- FRET ΔTm, ° C. with GQ [8]: 17.6 °C
- IC50 [9]: 13 nM
- IC50 [10]: 15.6 nM
- IC50 [11]: 26.5 nM
- IC50 [12]: 15.5 nM
- IC50 [13]: 14.9 nM
- tumours not showing complete regression, versus vehicle control [14]: reductions in tumour growth, leading to consistently smaller volumes than in the vehicle control groups
- IC50 [1]: 94 nM
- IC50 [15]: 113 nM
- IC50 [2]: 394 nM
- IC50 [16]: 135 nM
- IC50 [17]: 90 nM

The remaining lines, values ahead:

- IC50 ([3]; read-out: ABS IC50): 0.18 nM
- IC50 ([3]; read-out: Rel IC50): 0.239 nM
Compound: CCN(CC)Cc1ccc(-c2cc3c4c(c(NCCN5CCCC5)cc5c4c2C(=O)N(CCCN2CCOCC2)C5=O)C(=O)N(CCCN2CCOCC2)C3=O)cc1 [Example 5, 4-(4-((diethylamino)methyl)phenyl)-2,7-bis(3-morpholinopropyl)-9-((2-(pyrrolidin-1-yl)ethyl)amino)benzo[lmn][3,8]phenanthroline-1,3,6,8(2H,7H)-tetraone]

- IC50 ([3]; read-out: ABS IC50): 0.102 nM
- IC50 ([3]; read-out: Rel IC50): 0.099 nM
Compound: O=C1c2cc(-c3ccc(CNC4CCCC4)cc3)c3c4c(cc(NCCN5CCCC5)c(c24)C(=O)N1CCCN1CCOCC1)C(=O)N(CCCN1CCOCC1)C3=O [Example 6, 4-(4-((cyclopentylamino)methyl)phenyl)-2,7-bis(3-morpholinopropyl)-9-((2-(pyrrolidin-1-yl)ethyl)amino)benzo[lmn][3,8]phenanthroline-1,3,6,8(2H,7H)-tetraone]

- IC50 ([3]; read-out: ABS IC50): 0.182 nM
- IC50 ([3]; read-out: Rel IC50): 0.117 nM
Compound: O=C1c2cc(-c3ccc(CN4CCCCCC4)cc3)c3c4c(cc(NCCN5CCCC5)c(c24)C(=O)N1CCCN1CCOCC1)C(=O)N(CCCN1CCOCC1)C3=O [Example 7, 4-(4-(azepan-1-ylmethyl)phenyl)-2,7-bis(3-morpholinopropyl)-9-((2-(pyrrolidin-1-yl)ethyl)amino)benzo[lmn][3,8]phenanthroline-1,3,6,8(2H,7H)-tetraone]

- IC50 ([3]; read-out: ABS IC50): 0.277 nM
- IC50 ([3]; read-out: Rel IC50): 0.174 nM
Compound: CN1CCN(Cc2ccc(-c3cc4c5c(c(NCCN6CCCC6)cc6c5c3C(=O)N(CCCN3CCOCC3)C6=O)C(=O)N(CCCN3CCOCC3)C4=O)cc2)CC1 [Example 8]
